In patent publication US9486461B2, “Methods and compositions for inducing apoptosis by stimulating ER stress” (UNIVERSITY OF SOUTHERN CALIFORNIA, priority 2007, dated 2016):
Entries after “also recorded” stand apart in the source; their conditions may differ.

Tests used:
[1] = test system: Tumor-associated Brain Endothelial Cells (TuBEC); experiment: Trypan blue exclusion, tumor-associated brain endothelial cells; assay type: cell-based; conditions: TMZ 300 uM and 20 uM DMC, 48 hours, then 12 days without drug
Procedure: After drug treatment the cells were incubated for another 12 days in the absence of drug, in order to determine their long-term survival; at that time cytotoxicity was evaluated using the trypan blue exclusion technique. Results are presented as number of viable cells per group.
Tumor-associated Brain Endothelial Cells (TuBEC) were treated with TMZ (300 uM) and 20 uM DMC for 48 hours. The drugs were removed and cells were incubated for another 12 days; at that time cytotoxicity was evaluated using the trypan blue exclusion technique. Results are presented as number of viable cells per group.

U87 glioblastoma tumors = experiment: TUNEL assay of xenograft tumor tissue
purified COX-2 protein = target: T1, purified COX-2 protein (Homo sapiens, UniProt P35354); experiment: COX-2 inhibition in vitro with purified COX-2 protein; assay type: biochemical
T1 sequence (P35354 18-604): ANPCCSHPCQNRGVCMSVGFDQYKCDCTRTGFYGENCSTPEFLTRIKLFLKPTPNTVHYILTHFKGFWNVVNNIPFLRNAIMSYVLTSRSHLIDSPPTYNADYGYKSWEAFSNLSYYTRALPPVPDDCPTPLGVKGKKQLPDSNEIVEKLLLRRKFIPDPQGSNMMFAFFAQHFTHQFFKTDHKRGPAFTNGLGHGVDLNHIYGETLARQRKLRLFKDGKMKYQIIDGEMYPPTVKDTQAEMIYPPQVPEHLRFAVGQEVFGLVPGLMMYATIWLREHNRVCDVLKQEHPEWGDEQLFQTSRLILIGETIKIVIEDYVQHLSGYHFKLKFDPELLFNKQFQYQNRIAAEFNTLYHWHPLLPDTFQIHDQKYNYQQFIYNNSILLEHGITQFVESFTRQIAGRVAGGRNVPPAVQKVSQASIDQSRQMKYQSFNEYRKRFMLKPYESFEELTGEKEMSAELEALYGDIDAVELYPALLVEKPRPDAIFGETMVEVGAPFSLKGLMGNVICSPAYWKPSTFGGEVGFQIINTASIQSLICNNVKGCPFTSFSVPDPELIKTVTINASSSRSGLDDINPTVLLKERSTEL
Procedure: Bortezomib was obtained from the pharmacy as 3.5 mg Velcade suspended in 3.5 mL saline (Millennium Pharmaceuticals).

[2] = test system: CHOP protein in U87 glioblastoma tumor tissue; conditions: shown previously (ref. 39); cited from earlier work

Structure (SMILES): Cc1ccc(C)c(-c2cc(C(F)(F)F)nn2-c2ccc(S(N)(=O)=O)cc2)c1 [DMC, 4-[5-(2,5-dimethylphenyl)-3-(trifluoromethyl)-1H-pyrazol-1-yl]benzenesulfonamide]
- susceptibility of tumor vascular endothelial cells to TMZ [1]: increased the susceptibility
- TUNEL staining of tumor tissue (U87 glioblastoma tumors; U87MG xenograft, 1 mg/kg BZM and 7.5 mg/kg DMC individually or in combination, 50 h): nor did it substantially increase TUNEL staining
- apoptosis in the tumor tissue (U87 glioblastoma tumors; U87 xenograft, short-term drug treatment): significantly increased apoptosis
- COX-2-inhibitory activity (purified COX-2 protein): lacks the ability to inhibit COX-2; also recorded: lack thereof
- dosage at which ER stress in tumor tissue in vivo begins to appear [2]: > 10 mg/kg
